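Five compound concentrations were applied to cells in 96-well plates for 48 hours; endpoints were derived by simple linear interpolation of the resulting dose-response curve. GI50 marks 50% less growth. TGI marks complete inhibition of growth.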
Legend:
Experiment in all cases: inhibition of tumour cell growth, NCI panel, 48 h
A498 renal = system: A498 renal
NCI/ADR-RES ovarian = system: NCI/ADR-RES ovarian
HOP-92 NSCLC = system: HOP-92 NSCLC
M14 melanoma = system: M14 melanoma
CAKI-1 renal = system: CAKI-1 renal
NCI-H522 lung = system: NCI-H522 lung
SF-295 CNS = system: SF-295 CNS
OVCAR-5 ovarian = system: OVCAR-5 ovarian
LOX IMVI melanoma = system: LOX IMVI melanoma
SK-MEL-5 melanoma = system: SK-MEL-5 melanoma
RXF 393 renal = system: RXF 393 renal
MCF7 breast = system: MCF7 breast
UO-31 renal = system: UO-31 renal
COLO 205 colon = system: COLO 205 colon
SN12C renal = system: SN12C renal
MDA-MB-231 breast = system: MDA-MB-231 breast
UACC-62 melanoma = system: UACC-62 melanoma
IGROV1 ovarian = system: IGROV1 ovarian
PC-3 prostate = system: PC-3 prostate
HT29 colon = system: HT29 colon
ACHN renal = system: ACHN renal
SR leukemia = system: SR leukemia
CCRF-CEM leukemia = system: CCRF-CEM leukemia
SF-539 CNS = system: SF-539 CNS
HCT-116 colon = system: HCT-116 colon
786-0 renal = system: 786-0 renal
BT-549 breast = system: BT-549 breast
HL-60(TB) leukemia = system: HL-60(TB) leukemia
SNB-75 CNS = system: SNB-75 CNS
HCC-2998 colon = system: HCC-2998 colon
MDA-MB-435 = system: MDA-MB-435
OVCAR-3 ovarian = system: OVCAR-3 ovarian
KM12 colon = system: KM12 colon
T-47D breast = system: T-47D breast
SK-OV-3 ovarian = system: SK-OV-3 ovarian
DU-145 prostate = system: DU-145 prostate
OVCAR-8 ovarian = system: OVCAR-8 ovarian
HCT-15 colon = system: HCT-15 colon
UACC-257 melanoma = system: UACC-257 melanoma
SK-MEL-2 melanoma = system: SK-MEL-2 melanoma
SF-268 CNS = system: SF-268 CNS
MOLT-4 leukemia = system: MOLT-4 leukemia
A549 NSCLC = system: A549 NSCLC
NCI-H460 lung = system: NCI-H460 lung
OVCAR-4 ovarian = system: OVCAR-4 ovarian
SNB-19 CNS = system: SNB-19 CNS
HS 578T breast = system: HS 578T breast
U251 CNS = system: U251 CNS
NCI-H23 lung = system: NCI-H23 lung
SW-620 colon = system: SW-620 colon
SK-MEL-28 melanoma = system: SK-MEL-28 melanoma
MALME-3M melanoma = system: MALME-3M melanoma
K-562 leukemia = system: K-562 leukemia
EKVX NSCLC = system: EKVX NSCLC
TK-10 renal = system: TK-10 renal

SMILES: COC(=O)c1cc2c3ccccc3n3c2c(n1)-c1[nH]c2ccccc2c(=O)c1C3
- GI50 (A498 renal): 27 µM
- TGI (A498 renal): 73.7 µM
- GI50 (NCI/ADR-RES ovarian): > 100 µM
- TGI (NCI/ADR-RES ovarian): > 100 µM
- GI50 (HOP-92 NSCLC): 11.4 µM
- TGI (HOP-92 NSCLC): 29.3 µM
- GI50 (M14 melanoma): > 100 µM
- TGI (M14 melanoma): > 100 µM
- GI50 (CAKI-1 renal): > 100 µM
- TGI (CAKI-1 renal): > 100 µM
- GI50 (NCI-H522 lung): 66.3 µM
- TGI (NCI-H522 lung): > 100 µM
- GI50 (SF-295 CNS): 32 µM
- TGI (SF-295 CNS): > 100 µM
- GI50 (OVCAR-5 ovarian): > 100 µM
- TGI (OVCAR-5 ovarian): > 100 µM
- GI50 (LOX IMVI melanoma): > 100 µM
- TGI (LOX IMVI melanoma): > 100 µM
- GI50 (SK-MEL-5 melanoma): > 100 µM
- TGI (SK-MEL-5 melanoma): > 100 µM
- GI50 (RXF 393 renal): 16.3 µM
- TGI (RXF 393 renal): 66.9 µM
- GI50 (MCF7 breast): 15.6 µM
- TGI (MCF7 breast): > 100 µM
- GI50 (UO-31 renal): > 100 µM
- TGI (UO-31 renal): > 100 µM
- GI50 (COLO 205 colon): > 100 µM
- TGI (COLO 205 colon): > 100 µM
- GI50 (SN12C renal): > 100 µM
- TGI (SN12C renal): > 100 µM
- GI50 (MDA-MB-231 breast): 33.7 µM
- TGI (MDA-MB-231 breast): > 100 µM
- GI50 (UACC-62 melanoma): 43.3 µM
- TGI (UACC-62 melanoma): > 100 µM
- GI50 (IGROV1 ovarian): 24.6 µM
- TGI (IGROV1 ovarian): > 100 µM
- GI50 (PC-3 prostate): > 100 µM
- TGI (PC-3 prostate): > 100 µM
- GI50 (HT29 colon): > 100 µM
- TGI (HT29 colon): > 100 µM
- GI50 (ACHN renal): 33.6 µM
- TGI (ACHN renal): > 100 µM
- GI50 (SR leukemia): 17.3 µM
- TGI (SR leukemia): 96.9 µM
- GI50 (CCRF-CEM leukemia): 2.19 µM
- TGI (CCRF-CEM leukemia): > 100 µM
- GI50 (SF-539 CNS): 20.3 µM
- TGI (SF-539 CNS): 77.6 µM
- GI50 (HCT-116 colon): 21 µM
- TGI (HCT-116 colon): > 100 µM
- GI50 (786-0 renal): 16.8 µM
- TGI (786-0 renal): 60.3 µM
- GI50 (BT-549 breast): 22.6 µM
- TGI (BT-549 breast): 63.2 µM
- GI50 (HL-60(TB) leukemia): > 100 µM
- TGI (HL-60(TB) leukemia): > 100 µM
- GI50 (SNB-75 CNS): 16 µM
- TGI (SNB-75 CNS): 71.3 µM
- GI50 (HCC-2998 colon): > 100 µM
- TGI (HCC-2998 colon): > 100 µM
- GI50 (MDA-MB-435): > 100 µM
- TGI (MDA-MB-435): > 100 µM
- GI50 (OVCAR-3 ovarian): > 100 µM
- TGI (OVCAR-3 ovarian): > 100 µM
- GI50 (KM12 colon): > 100 µM
- TGI (KM12 colon): > 100 µM
- GI50 (T-47D breast): 58.4 µM
- TGI (T-47D breast): > 100 µM
- GI50 (SK-OV-3 ovarian): 19.6 µM
- TGI (SK-OV-3 ovarian): > 100 µM
- GI50 (DU-145 prostate): > 100 µM
- TGI (DU-145 prostate): > 100 µM
- GI50 (OVCAR-8 ovarian): > 100 µM
- TGI (OVCAR-8 ovarian): > 100 µM
- GI50 (HCT-15 colon): > 100 µM
- TGI (HCT-15 colon): > 100 µM
- GI50 (UACC-257 melanoma): > 100 µM
- TGI (UACC-257 melanoma): > 100 µM
- GI50 (SK-MEL-2 melanoma): 36.4 µM
- TGI (SK-MEL-2 melanoma): > 100 µM
- GI50 (SF-268 CNS): 29.6 µM
- TGI (SF-268 CNS): > 100 µM
- GI50 (MOLT-4 leukemia): 5.9 µM
- TGI (MOLT-4 leukemia): > 100 µM
- GI50 (A549 NSCLC): > 100 µM
- TGI (A549 NSCLC): > 100 µM
- GI50 (NCI-H460 lung): > 100 µM
- TGI (NCI-H460 lung): > 100 µM
- GI50 (OVCAR-4 ovarian): > 100 µM
- TGI (OVCAR-4 ovarian): > 100 µM
- GI50 (SNB-19 CNS): 26.3 µM
- TGI (SNB-19 CNS): > 100 µM
- GI50 (HS 578T breast): 15.4 µM
- TGI (HS 578T breast): > 100 µM
- GI50 (U251 CNS): 15.2 µM
- TGI (U251 CNS): 52.3 µM
- GI50 (NCI-H23 lung): 38.9 µM
- TGI (NCI-H23 lung): > 100 µM
- GI50 (SW-620 colon): > 100 µM
- TGI (SW-620 colon): > 100 µM
- GI50 (SK-MEL-28 melanoma): > 100 µM
- TGI (SK-MEL-28 melanoma): > 100 µM
- GI50 (MALME-3M melanoma): > 100 µM
- TGI (MALME-3M melanoma): > 100 µM
- GI50 (K-562 leukemia): > 100 µM
- TGI (K-562 leukemia): > 100 µM
- GI50 (EKVX NSCLC): 79 µM
- TGI (EKVX NSCLC): > 100 µM
- GI50 (TK-10 renal): 23 µM
- TGI (TK-10 renal): 45.9 µM

From PubChem BioAssay (NCI)
